The Kd is the concentration at which binding is half-saturated. A higher Kd goes with lower affinity.

Some results are limits rather than exact numbers.

One data set has as its system immune cells. Particulars: ref Tang et al., 2012, Venereau et al.; cited from earlier work.
The next data set relates to RAW 264.7 cells. Kind of data set: TNF release from RAW 264.7 cells stimulated with HMGB1 isoforms. Particulars: 1 µg/ml, 16 h, n = 3–5 experiments.
The next data set has as its target T1, human MD-2 (Homo sapiens, UniProt Q9Y6Y9).
T1 sequence (Q9Y6Y9 19-160): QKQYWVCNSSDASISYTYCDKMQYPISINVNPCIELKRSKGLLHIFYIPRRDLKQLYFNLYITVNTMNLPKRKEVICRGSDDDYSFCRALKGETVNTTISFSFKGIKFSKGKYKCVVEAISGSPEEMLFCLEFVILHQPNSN
Briefly: SPR. It is filed as binding. Particulars: MD-2 coated on chip; for reduction in MD-2 binding as compared with disulfide HMGB1: SPR, HMGB1 isoforms.

Data set [1] concerns the target human MD-2 (myeloid differentiation factor 2) (human) (UniProt Q9Y6Y9). Briefly: SPR. (In SPR one partner is held on a chip, and binding of the other changes the refractive index at the surface.)
The subject of data set [2] is thioglycollate-elicited peritoneal macrophages (WT and MD-2 KO). It counts as cell-based. Particulars: MD-2 KO vs WT macrophages; mouse cytokine antibody array.
The next data set has as its system WT or MD-2 KO mice. Kind of data set: APAP hepatotoxicity in WT or MD-2 KO mice. It counts as in vivo, mouse.

For “sulfonyl HMGB1: HMGB1 with all cysteines terminally oxidized”, the “extracellular chemokine/cytokine activity (in words)” value in the data set on immune cells is “devoid of chemotactic and cytokine activities”. The “TNF release induced by HMGB1 isoform” value in the data set with RAW 264.7 cells is “failed to induce TNF release”. The “reduction in MD-2 binding as compared with disulfide HMGB1” value (“reduction … with disulfide HMGB1” for short) in the data set with human MD-2 is > 1,000 fold.

As for “disulfide HMGB1 (from UniProt P63159 1-215) (natural protein)”, in data set [1], the Kd stood at 12 nM.

For “H2S-modified HMGB1: HMGB1 S-sulfhydrated by incubation with 5 mM NaSH for 3 h at room temperature”, in the data set on RAW 264.7 cells, the “TNF release induced by HMGB1 isoform” value is given as “failed to induce TNF release”. Moreover, the “reduction … with disulfide HMGB1” value with human MD-2 is reported as > 1,000 fold.

In data set [1], “sulfonyl HMGB1 (from UniProt P63159 1-215) (natural protein)” registered a fold reduction in MD-2 binding against disulfide HMGB1 of more than 1000 fold.

With “disulfide HMGB1: recombinant cytokine-stimulating HMGB1; disulfide bond between cysteines 23 and 45 and reduced thiol on cysteine 106”, the “release of IL-12/p40 stimulated with HMGB1” value in data set [2] was “via an MD-2–independent mechanism”. In addition, in the data set with immune cells, the “extracellular chemokine/cytokine activity (in words)” value is on record as “activates immune cells to produce cytokines/chemokines via the TLR4 receptor”. Also, the “TNF release induced by HMGB1 isoform” value with RAW 264.7 cells is reported as “induced TNF secretion”. Besides, the “MD-2 binding (in words)” value with human MD-2 (SPR Biacore) is on record as “binds to MD-2 with high affinity”.

Take “fully reduced HMGB1: HMGB1 with all cysteine residues reduced (DTT-reduced)”: the “extracellular chemokine/cytokine activity (in words)” value with immune cells is “binds to CXCL12 and stimulates immune cell infiltration via the CXCR4 receptor”. In addition, the “TNF release induced by HMGB1 isoform” value in the data set on RAW 264.7 cells is reported as “failed to induce TNF release”. In addition, the “reduction … with disulfide HMGB1” value with human MD-2 is > 1,000 fold.

`CC(=O)Nc1ccc(O)cc1` [APAP, acetaminophen]: in the data set with WT or MD-2 KO mice (24 h after APAP), the “serum HMGB1 levels, WT and MD-2 KO mice” value was “comparably elevated in WT and MD-2 KO mice”. The “APAP acute hepatic injury (GLDH, AST, ALT, necrosis), MD-2 KO vs WT” value with WT or MD-2 KO mice (APAP 400 mg/kg i.p., 24 h, n = 5–13 mice per group) is recorded as “significant reduction in acute hepatic injury”. Further, in the data set on WT or MD-2 KO mice (APAP i.p. 400 mg/kg (serum, 24 h), 350 mg/kg (survival, n = 15)), the “cytokine release and APAP-induced lethality, MD-2 KO vs WT” value was “significant reduction in cytokine (TNF and IL-6) release and APAP-induced animal lethality”.

B1: Hg-HMGB1: HMGB1 with mercury thiolate on cysteine at position 106 (protein, UniProt P09429 1-215, looked up)
High mobility group protein B1: MGKGDPKKPRGKMSSYAFFVQTCREEHKKKHPDASVNFSEFSKKCSERWKTMSAKEKGKFEDMAKADKARYEREMKTYIPPKGETKKKFKDPNAPKRPPSAFFLFCSEYRPKIKGEHPGLSIGDVAKKLGEMWNNTAADDKQPYEKKAAKLKEKYEKDIAAYRAKGKPDAAKKGVVKAEKSKKKKEEEEDEEDEEDEEEEEDEEDEDEEEDDDDE
modifications: mercury thiolate on C106
As for B1, the “TNF release induced by HMGB1 isoform” value with RAW 264.7 cells was “Noncytokine-inducing”.

Source of the values: paper PMC4291531 (The Journal of Experimental Medicine, 2015).
